# Where a name gives a salt, the structure may show the parent alone. Read-outs that look alike come from different tables or passages of the source. Where no end group is shown, it is not given here. [ ]: non-standard residue; d: D form. bis‑iodoacetamido azobenzene = bis-iodoacetamido azobenzene crosslinker; Aib = CC(C)(N)C(=O)O
# Experiments:
# JH-EsoAd1 cells [1] = assay: Concentration dependent cell viability (MTT assay); type: cell-based
# Experimental: (§1) The Esophageal cancer cell line (JH-EsoAd1) was cultured at 37° C. and in a humidified atmosphere of 5% CO2 in RPMI 1640 medium supplemented with 10% fetal bovine serum (FBS). For 96 well plate experiments, the JH-EsoAd1 cells were seeded at 4450 cells/well in 100 uL of media in 96 well plates; experiments were carried out one day after seeding. MTT assays were analyzed using a Bio-Tex μQuant plate reader at 562 nm. FACS was performed BD FACS Aria II using BD FACS Diva software at the VCU Flow Cytometry Core Facility. A minimum of 20,000 cells within the gated region were analyzed. Confocal microscopy images were acquired at room temperature with a Leica confocal laser scanning microscope.
# (§2) JH-EsoAd1 cells were treated with media alone, media supplemented with EDANS (20 μM), or media supplemented with Dox-EDANS (9) (20 μM) in a 96 well clear-bottom, opaque plate. Cells were exposed to light (9 mW/cm^2) for various times (0-40 min) regulated by an aluminum foil mask. During the experiment the plate was kept in ice to reduce the heating by the UV lamp. After the lamp was turned off, the plate was covered with foil and placed at room temperature for an additional 80 min. The media was removed, and the cells were thoroughly washed with media (3×); then 200 μL of fresh media was added to each well. The plates were incubated for 72 hours at 37° C., following which the media was removed and 100 µL of MTT (2 mg/ml) in phosphate buffered saline (PBS) was added to each well. After 3 hours, the MTT solution was removed and replaced with 100 μL of DMSO. The absorbance at 562 nm was analyzed via a plate reader.
# JH-EsoAd1 cells were treated with media supplemented with various concentrations of doxorubicin (0-6.4 μM) or Dox-EDANS (9) (0-16 μM) in a 96 well clear-bottom, opaque plate. Control wells were covered with aluminum foil while the remaining wells were exposed UV light (9 mW/cm^2) for 20 min. The plate was kept in ice during light exposure in order to minimize the heating. After irradiation, the plate was kept at it in the dark for another 100 minutes. […]
# JH-EsoAd1 cells [2] = assay: Illumination time-dependent toxicity (MTT assay); type: cell-based
# Experimental: as §1
# as §2, with “The plates were incubated for 72 hours at 37° C., following which the media was removed and 100 µL of MTT (2 mg/ml) in phosphate buffered saline (PBS) was added to each well. After 3 hours, the MTT solution was removed and replaced with 100 μL of DMSO.” left out
# [3] = Photolytic release of doxorubicin from drug conjugate (RP-HPLC); type: physicochemical; details: PBS buffer, UV light 365 nm (9.0 mW/cm^2), 0.5-30 min
# Experimental: The photolytic release of doxorubicin from the drug conjugate was analyzed using HPLC. The drug conjugate was dissolved in PBS buffer and was exposed to UV light at 365 nm (9.0 mW/cm^2). Aliquots of the reaction mixture were collected at various times and were analyzed on RP-HPLC.
# A solution (0.065 mM in 1 mL) of compound 6 in PBS was placed in a 60×15 mm well plastic dish placed on ice. The solution was irradiated and 70 μL was removed at various time points (0.5, 1, 2, 4, 8, 15, 20, and 30 minutes). Each assay was analyzed on RP-HPLC using isocratic elution of 20% organic eluent (0.1% TFA in acetonitrile) for 5 minutes and then using gradient elution from 20% to 70% for 30 minutes and was monitored at λabs=480 nm. (See FIG. 14).
# JH-EsoAd1 cells [4] = assay: Confocal microscopic analysis of permeability; type: cell-based; details: 10 μM, light-treated cells vs dark
# Experimental: as §1
# JH-EsoAd1 cells were seeded at 30,000 cells/well on 4 well glass chamber slides, and were treated as above (Flow cytometry analysis). The cells were treated with media alone or media supplemented with 10 μM of EDANS-Dox (6). The plate was placed on ice, and the light treated cells were exposed to UV light (9 mW/cm^2) for 20 minutes. Following the light exposure the plates were kept at room temperature for 100 minutes. The cells were washed extensively with PBS and fixed for 15 min at 37° C. with 3% paraformaldehyde in PBS. Slides were rinsed, dried and mounted under coverslips using Vectashield mounting media (Vector Laboratories, Inc.).
# [5] = HPLC monitoring of azobenzene cis to trans thermal relaxation after illumination; type: physicochemical; details: fit to exponential decay
# Excerpt: We also monitored the switching of the azobenzene by HPLC, since we were able to separate both the cis and trans peptide isomers (FIG. 19B). After illumination the cis isomer reverted to the trans isomer over time. […] The half-life is in line with measurements of similar peptides, but the % cis is lower than the typical 80-95%. Use of a filter to eliminate the longer wavelength light (our light source has a spike of intensity at 405 nm which can promote cis to trans reversion) would enhance photoswitching upon irradiation.
# [6] = CD spectra of photoswitching; type: physicochemical
compound,measurement,setting,value
"COc1cccc2c1C(=O)c1c(O)c3c(c(O)c1C2=O)C[C@@](O)(C(=O)CO)C[C@@H]3O[C@H]1C[C@H](N)[C@H](O)[C@H](C)O1 [Dox, Doxorubicin Hydrochloride, reference compound]",IC50,"JH-EsoAd1 cells [1]; Dox alone, read-out: IC50 of Dox alone with the JH-EsoAd1 cells",1000 ± 400 nM
"COc1cc(C(C)OC(=O)NC2C[C@H](OC3C[C@](O)(C(=O)CO)Cc4c(O)c5c(c(O)c43)C(=O)c3c(OC)cccc3C5=O)C[C@@H](C)[C@H]2O)c([N+](=O)[O-])cc1OCCCC(=O)NCc1cn(-c2ccc(C(=O)NCCNc3cccc4c(S(=O)(=O)O)cccc34)cc2)nn1 (stereo partly shown) [EDANS-Dox, Photocaged-Cell Impermeable Dox. Conjugate]",Survival of cells in the dark,JH-EsoAd1 cells [2]; in the dark,equivalent to controls with no drug added
same,Cell survival with increased illumination,"JH-EsoAd1 cells [2]; light 9 mW/cm^2, 0-40 min",decreased survival
same,photolytic release of doxorubicin,[3],time-depended drug release in the presence of light
same,Dox fluorescence in the nucleus (confocal),JH-EsoAd1 cells [4],only light-treated cells show significant Dox fluorescence in the nucleus
same,IC50,"JH-EsoAd1 cells [1]; 20 min, illumination 365 nm, 9.0 mW/cm^2, 20 min, read-out: IC50, cytotoxicity upon illumination",1600 ± 1000 nM
same,toxicity to the cells in the dark,"JH-EsoAd1 cells [1]; in the dark, at the highest value tested (16 µM)",not toxic
"*CRACARVXAACRAAARQ (RACARV[Aib]AACRAAARQ; linker (positions not given here) via bis‑iodoacetamido azobenzene; not fully specified (N-terminus, bridges); also: bis-iodoacetamido azobenzene crosslink, Cys pair not given here) [Peptide 1, arginine-rich photoswitchable peptide, cysteines crosslinked with bis-iodoacetamido azobenzene; X=2-aminoisobutyric acid]",percentage of cis isomer upon illumination,[5],55%
same,conformation upon irradiation (CD),"[6]; 370 nm light, 25° C., illumination for 5 min",more α-helical
same,conformation after removal of light (CD),[6]; after 30 minutes in the dark,reverted mostly back to the more random coiled state

# From US9364551B2, “Light-enabled drug delivery” (Virginia Commonwealth University, priority 2011, dated 2016)
